Values quoted from earlier work, collected in patent US20150148304A1, “Novel Peptides and Analogs for Use in the Treatment of Macrophage Activation Syndrome” (Soligenix, Inc., priority 2013, published 2015).

Assays:
TLR9 = molecular target: T1, TLR9 (Homo sapiens, UniProt Q9NR96); settings: average; US 2011/0136845 Trawick et al.; cited from earlier work
T1 sequence (Q9NR96 26-1032): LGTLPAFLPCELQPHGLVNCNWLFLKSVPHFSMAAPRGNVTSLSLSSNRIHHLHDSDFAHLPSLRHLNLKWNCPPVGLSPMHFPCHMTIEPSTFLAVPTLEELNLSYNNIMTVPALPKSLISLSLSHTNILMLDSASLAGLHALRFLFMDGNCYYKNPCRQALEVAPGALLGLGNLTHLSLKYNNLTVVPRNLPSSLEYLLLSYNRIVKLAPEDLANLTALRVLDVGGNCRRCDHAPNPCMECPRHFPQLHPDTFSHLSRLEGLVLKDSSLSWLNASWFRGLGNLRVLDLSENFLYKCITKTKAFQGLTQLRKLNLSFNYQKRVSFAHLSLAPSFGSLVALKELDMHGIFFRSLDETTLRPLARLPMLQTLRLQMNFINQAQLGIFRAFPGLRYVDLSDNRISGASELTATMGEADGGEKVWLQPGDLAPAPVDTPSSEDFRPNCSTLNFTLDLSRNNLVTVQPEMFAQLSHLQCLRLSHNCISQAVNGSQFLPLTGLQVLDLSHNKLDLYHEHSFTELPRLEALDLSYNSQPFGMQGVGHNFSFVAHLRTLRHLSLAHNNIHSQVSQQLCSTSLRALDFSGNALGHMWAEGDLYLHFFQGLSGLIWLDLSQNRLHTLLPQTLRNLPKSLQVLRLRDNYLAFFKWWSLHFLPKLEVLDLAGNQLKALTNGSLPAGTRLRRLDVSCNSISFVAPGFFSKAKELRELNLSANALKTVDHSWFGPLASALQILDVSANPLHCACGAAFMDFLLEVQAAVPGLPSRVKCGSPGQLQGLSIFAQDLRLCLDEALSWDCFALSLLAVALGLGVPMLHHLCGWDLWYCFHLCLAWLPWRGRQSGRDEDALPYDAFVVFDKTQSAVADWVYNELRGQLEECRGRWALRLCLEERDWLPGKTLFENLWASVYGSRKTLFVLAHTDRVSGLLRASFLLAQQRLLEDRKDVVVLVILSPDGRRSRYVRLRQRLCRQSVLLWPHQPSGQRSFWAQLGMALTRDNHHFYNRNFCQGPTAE

[1] = cited from earlier work
[2] = tested on: macrophage activation syndrome; settings: Ravelli et al. 2001, cited from earlier work

O=C1CC[C@]2(O)[C@@H]3Cc4ccc(O)c5c4[C@]2(CCN3CC2CC2)[C@@H]1O5 [(+)-Naltrexone]
inhibition of TLR9 (TLR9): 51%

O=C1CC[C@@]2(O)[C@H]3Cc4ccc(O)c5c4[C@@]2(CCN3CC2CC2)[C@H]1O5 [Naltrexone]
time of peak plasma levels after dosing ([1]; oral administration): one | urinary excretion of unchanged Naltrexone ([1]; share of the elimination pathway): less than 2%

cyclosporin A [CyA]
efficacy in severe or corticosteroid-resistant macrophage activation syndrome ([2]; patients, Mouy et al. 1996): effective | time to disappearance of fever and improvement of laboratory abnormalities ([2]; some patients): 12 to 24 h
